Earlier results on five molecules are cited in patent US20060134226A1, “Compositions useful to treat ocular neovascular diseases and macular degeneration” (priority 2004, published 2006).

For data set [1] the following is noted: in vivo.
For data set [2] the following is noted: oral dose of 600 mg tid, long periods of time, patients with chronic bronchitis and emphysema.
The conditions of data set [3]: consumed daily.
For data set [4] the following is noted: about 200 mg dosage of zinc per day.
Data set [5] concerns macular degeneration changes. The following applies: 80 mg of zinc, versus placebo.
Assay in data set [6]: not given
The source holds these as a separate data set.

For data set [7] the following is noted: in vivo. This is another data set of the same source.

Take `CC(=O)Oc1c(C)c(C)c2c(c1C)CC[C@@](C)(CCC[C@H](C)CCC[C@H](C)CCCC(C)C)O2` (racemic) [dl-alpha tocopheryl acetate]: the “level at which no adverse effects have been observed” value in data set [1] was no more than 800 mg.

With `CC(=O)N[C@@H](CS)C(=O)O` [NAC, N-acetylcysteine], the tolerability entry in data set [2] is listed as “well tolerated”. Besides, the “dose excreted in the urine” value (after 24 hours) was “approximately 22%”. Besides, the mean plasma half-life result (humans) is recorded as “about 1.35 hours”. The “absorption of radiolabelled NAC” value (humans, one hour after administration) is given as “rapidly absorbed”.

As to `O=C1O[C@H]([C@@H](O)CO)C(O)=C1O` [vitamin C, ascorbic acid], the “daily intake without any known adverse effects” value in data set [3] is ≥ 1,000 mg.

On to `[Zn]` [zinc], for which the side effects result in data set [4] is on record as “potential side effects such as anemia”. Further, the “retarding macular degeneration changes” value in data set [5] is recorded as “significantly better than placebo”.

In the case of beta carotene [beta-carotene], in data set [6] (20 mg/day of beta-carotene), the “risk among male smokers” value was “increased risk of lung cancer” and the “risk in men with previous myocardial infarction” value is on record as “increased risk of fatal coronary heart attacks”. Also, the “dosage level with no observed adverse effects” value in data set [6] (healthy, non-smokers) is listed as no more than 25 mg per day. Also, the “efficiency of conversion to vitamin A in the body” value in data set [7] is reported as “approximately 50%”.
